Test results published in ChEMBL document CHEMBL3046577, “Stereocontrolled synthesis of spirosuccinimide derivative of (+)-hydantocidin” (1995).
Calls of active or inactive are those of the source. No cut-off for these calls is given here.

Assays:
Format in all cases: functional
Xanthium strumarium = assay: Herbicidal activity against Xanthium strumarium (cocklebur) at 1000 ppm relative to control
Ambrosia artemisiifolia = assay: Herbicidal activity against Ambrosia artemisiifolia (ragweed) at 1000 ppm relative to control
Eleusine indica = assay: Herbicidal activity against Eleusine indica at 1000 ppm relative to control

SMILES | Activity (Xanthium strumarium) | Activity (Ambrosia artemisiifolia) | Activity (Eleusine indica)
O=C1NC(=O)[C@@]2(N1)O[C@H](CO)[C@@H](O)[C@H]2O | Active | Active | Active
O=C1C[C@@]2(O[C@H](CO)[C@@H](O)[C@H]2O)C(=O)N1 | 90% | 90% | 70%
